According to the C3SDB collision cross section collection:
Several values for one entry are separate records, joined by “and”; a condition that tells them apart may be missing. Equal entries are not always repeated. Each block holds one compound with its values, some of them ahead of it.

Tests used:
[1] = instrument: TW, calibrated with polyalanine
[2] = instrument: TW, calibrated with phosphatidylcholines (ESI+) and phosphatidylethanolamines (ESI-)
[3] = instrument: DT, stepped-field
[4] = [M+H]+; instrument: DT; single field, calibrated with Agilent tune mix (Agilent)
[5] = [M+H]+; instrument: DT; stepped-field
[6] = [M-H]-; instrument: DT; stepped-field
[7] = instrument: TW, calibrated with phosphatidylcholines (ESI+) and phosphatidylethanolamines (ESI-); remark: listed apart in the source
[8] = instrument: DT, single field, calibrated with Agilent tune mix (Agilent)

Compound: CC[C@H](C)[C@H]1C(=O)O[C@H](C(C)C)C(=O)N(C)[C@@H]([C@@H](C)CC)C(=O)O[C@H](C(C)C)C(=O)N(C)[C@@H]([C@@H](C)CC)C(=O)O[C@H](C(C)C)C(=O)N1C [Enniatin A]
- collision cross section (N2) ([1]; [M+H]+): 257.9 Å²
- collision cross section (N2) ([1]; [M+K]+): 264.7 Å²
- collision cross section (N2) ([1]; [M+NH4]+): 264 Å²
- collision cross section (N2) ([1]; [M+Na]+): 262.4 Å²

- collision cross section (N2) ([1]; [M+H]+): 255 Å²
- collision cross section (N2) ([1]; [M+K]+): 264.6 Å²
- collision cross section (N2) ([1]; [M+Na]+): 260.4 Å²
Compound: CCCC[C@@H](C)[C@@H](OC(=O)C[C@@H](CC(=O)O)C(=O)O)[C@H](C[C@@H](C)CCCCCCCC[C@H](O)[C@H](C)N)OC(=O)C[C@@H](CC(=O)O)C(=O)O [Fumonisin B4]

- collision cross section (N2) ([2]; [M+CH3COO]-): 280.3 Å²
- collision cross section (N2) ([2]; [M+Cl]-): 273.7 Å²
- collision cross section (N2) ([2]; [M+K]+): 273.6 Å²
- collision cross section (N2) ([2]; [M+Na]+): 273.1 Å²
- collision cross section (N2) ([2]; [M-H]-): 269.9 Å²
Compound: CC/C=C\C/C=C\C/C=C\CCCCCCCC(=O)OC[C@H](CO[C@@H]1O[C@H](CO)[C@H](O)C(O)C1O)OC(=O)CCCCC/C=C\C/C=C\C/C=C\CC (stereo partly specified) [MGDG(16:3/18:3)]

Compound: O=C1C=C2C(=CCOC2O)O1 (stereo unspecified) [Patulin]
- collision cross section (N2) ([1]; [M+H3C2O2]-): 142 Å²

- collision cross section (N2) ([2]; [M-H]-): 262.1 Å²
Compound: CCCC/C=C\CCCCCCCC(=O)O[C@H](CO/C=C\CCCCCCCCCCCCCCCC)COP(=O)(O)OC[C@@H](O)CO [PG(p32:1)]

- collision cross section (N2) ([2]; [M+NH4]+): 314.2 Å²
- collision cross section (N2) ([2]; [M+Na]+): 311.8 Å²
Compound: CCCCCCCCCCCCCCCCC(=O)OC[C@H](CO[C@@H]1O[C@H](CO[C@H]2O[C@H](CO)[C@H](O)C(O)C2O)[C@H](O)C(O)C1O)OC(=O)CCCCCCCCCCCCCCCC (stereo partly specified) [DGDG(34:0)]

Compound: CCCC[C@@H](C)[C@@H](OC(=O)C[C@@H](CC(=O)O)C(=O)O)[C@H](C[C@@H](C)C[C@H](O)CCCC[C@@H](O)C[C@H](O)[C@H](C)N)OC(=O)C[C@@H](CC(=O)O)C(=O)O [Fumonisin B1]
- collision cross section (N2) ([1]; [M+H]+): 258 Å²
- collision cross section (N2) ([1]; [M+K]+): 269 Å²
- collision cross section (N2) ([1]; [M+Na]+): 264.4 Å²

- collision cross section (N2) ([2]; [M+NH4]+): 302.2 Å²
- collision cross section (N2) ([2]; [M+Na]+): 298 Å²
Compound: CCCCCCCCCCCCC=CCC(=O)OC[C@H](CO[C@@H]1O[C@H](CO[C@H]2O[C@H](CO)[C@H](O)C(O)C2O)[C@H](O)C(O)C1O)OC(=O)CC=CCCCCCCCCCCCC (stereo partly specified) [DGDG(32:2)]

Compound: COc1cc2c(c3oc(=O)c4c(c13)CCC4=O)[C@@H]1CCO[C@@H]1O2 [Aflatoxin B2]
- collision cross section (N2) ([1]; [M+H]+): 162 Å²
- collision cross section (N2) ([1]; [M+K]+): 181.4 Å²
- collision cross section (N2) ([1]; [M+Na]+): 176.8 Å²

- collision cross section (N2) ([2]; [M+H]+): 299.8 Å²
Compound: CCCCCCCCCCCCCCCCCC(=O)OC(COC(=O)CCCCCCCCCCCCCC)COP(=O)([O-])OCC(O)COC(=O)C(N)CCCC[NH3+] (stereo unspecified) [LysPG(33:0)]

- collision cross section (N2) ([3]; [M+H]+): 132.74 Å²
- collision cross section (N2) ([3]; [M+Na]+): 135.48 Å²
- collision cross section (N2) ([3]; [M-H]-): 130.01 Å²
- collision cross section (N2) [4]: 131.9 Å²
- collision cross section (N2) [5]: 132.41 Å²
Compound: N[C@@H](Cc1cnc[nH]1)C(=O)O [L-Histidine]

- collision cross section (N2) ([2]; [M-H]-): 251.2 Å²
Compound: CCCC/C=C\CCCCCCCC(=O)O[C@H](COC(=O)CCCCCCCCCCCCC)COP(=O)(O)OC[C@@H](O)CO [PG(28:1)]

- collision cross section (N2) ([2]; [M-H]-): 256.3 Å²
- collision cross section (N2) [6]: 259.2 Å²
Compound: CCCCCCCCCC/C=C\CCCCCCCCCC(=O)O[C@H](COC(=O)CCCCCCCCCCC)COP(=O)(O)O [PA(16:0/18:1)]

- collision cross section (N2) ([3]; [M+H]+): 126.22 Å²
- collision cross section (N2) [4]: 125.1 Å²
- collision cross section (N2) [5]: 126.48 Å²
Compound: O=C(O)[C@@H]1CCCN1 [L-Proline]

- collision cross section (N2) ([7]; [M+Na]+): 274.1 Å²
- collision cross section (N2) ([7]; [M-H]-): 262.5 Å²
- collision cross section (N2) ([8]; [M-H]-): 263.3 Å²
- collision cross section (N2) ([2]; [M-H]-): 263.3 Å²
- collision cross section (N2) [6]: 270.4 Å²
Compound: CCCCCCCC/C=C\CCCCCCCCCC(=O)O[C@H](COC(=O)CCCCCCCCCCC)COP(=O)(O)OC[C@@H](O)CO [PG(32:1)]

- collision cross section (N2) ([7]; [M+Na]+): 284.7 Å²
- collision cross section (N2) ([7]; [M-H]-): 274.3 Å²
- collision cross section (N2) ([8]; [M+H]+): 288.9 Å²
- collision cross section (N2) ([8]; [M+Na]+): 286 Å²
- collision cross section (N2) ([2]; [M-H]-): 274.9 Å²
- collision cross section (N2) [6]: 282.3 Å² and 281.9 Å²
Compound: CCCC/C=C\CCCCCCCC(=O)OC[C@H](COP(=O)(O)OC[C@@H](O)CO)OC(=O)CCCCCCCCC/C=C\CCCCCCCCCC [PG(36:2)]

- collision cross section (N2) ([2]; [M-H]-): 277.9 Å²
Compound: CCCCCCCCCCCCCCCCCCCCC(=O)OC[C@H](COP(=O)(O)OC[C@@H](O)CO)OC(=O)CCCCCCCCCCCCCC [PG(36:0)]

- collision cross section (N2) ([2]; [M+H]+): 308.7 Å²
Compound: CCCCCCCCCCCCCCCCCCCCC(=O)OC(COC(=O)CCCCCCCCCCCCCC)COP(=O)([O-])OCC(O)COC(=O)C(N)CCCC[NH3+] (stereo unspecified) [LysPG(36:0)]

- collision cross section (N2) ([2]; [M+H]+): 302.8 Å²
Compound: CCCCCC/C=C\CCCCCCCCCC(=O)OCC(COP(=O)([O-])OCC(O)COC(=O)C(N)CCCC[NH3+])OC(=O)CCCCCCCCC/C=C\CCCCCC (stereo unspecified) [LysPG(36:2)]

- collision cross section (N2) ([2]; [M-H]-): 252.2 Å²
Compound: CCCC/C=C\CCCCCCCC(=O)O[C@H](CO/C=C\CCCCCCCCCCCCC)COP(=O)(O)OC[C@@H](O)CO [PG(p29:1)]

- collision cross section (N2) ([2]; [M-H]-): 263.4 Å²
Compound: CCCC/C=C\C/C=C\CCCCCCCC(=O)O[C@H](CO/C=C\CCCCCCCCCCCCCC)COP(=O)(O)OC[C@@H](O)CO [PG(p33:2)]

- collision cross section (N2) ([2]; [M-H]-): 248.2 Å²
Compound: CCCCCCCCCCCCCCCCCC(=O)O[C@H](COC(=O)CCCCCCCCCCCC)COP(=O)(O)O [PA(31:0)]

- collision cross section (N2) ([7]; [M+Na]+): 282.2 Å²
- collision cross section (N2) ([7]; [M-H]-): 269 Å²
- collision cross section (N2) ([2]; [M-H]-): 270.8 Å²
- collision cross section (N2) [6]: 277.6 Å²
Compound: CCCCCCCCCCCCCCCCCCCC(=O)OC[C@H](COP(=O)(O)OC[C@@H](O)CO)OC(=O)CCCCCCCCCCCCC [PG(34:0)]

- collision cross section (N2) ([2]; [M+H]+): 299.6 Å²
Compound: CCCCCC/C=C/CCCCCCCCCC(=O)OCC(COP(=O)([O-])OCC(O)COC(=O)C(N)CCCC[NH3+])OC(=O)CCCCCCCCCCCCCCC (stereo unspecified) [LysPG(34:1)]

- collision cross section (N2) ([2]; [M+NH4]+): 302.4 Å²
- collision cross section (N2) ([2]; [M+Na]+): 299.6 Å²
Compound: CCCCCCCCCCCCCCC(=O)OC[C@H](CO[C@@H]1O[C@H](CO[C@H]2O[C@H](CO)[C@H](O)C(O)C2O)[C@H](O)C(O)C1O)OC(=O)CCCCCCCCCCCCCC (stereo partly specified) [DGDG(30:0)]

- collision cross section (N2) ([7]; [M+Na]+): 281.1 Å²
- collision cross section (N2) ([7]; [M-H]-): 268.9 Å²
- collision cross section (N2) ([8]; [M+H]+): 286.8 Å²
- collision cross section (N2) ([8]; [M+NH4]+): 287.3 Å²
- collision cross section (N2) ([8]; [M-H]-): 270.2 Å²
- collision cross section (N2) ([2]; [M-H]-): 269.9 Å²
Compound: CCCCCCCCCC/C=C\CCCCCCCCCC(=O)O[C@H](COC(=O)CCCCCCCCCCC)COP(=O)(O)OC[C@@H](O)CO [PG(34:1)]

- collision cross section (N2) ([2]; [M+K]+): 315.3 Å²
- collision cross section (N2) ([2]; [M+NH4]+): 315.2 Å²
- collision cross section (N2) ([2]; [M+Na]+): 312.4 Å²
Compound: CCCCCCCCCCCCCCC=CCC(=O)OC[C@H](CO[C@@H]1O[C@H](CO[C@H]2O[C@H](CO)[C@H](O)C(O)C2O)[C@H](O)C(O)C1O)OC(=O)CC=CCCCCCCCCCCCCCC (stereo partly specified) [DGDG(36:2)]

- collision cross section (N2) ([2]; [M+H]+): 300.8 Å²
Compound: CCCCCC/C=C\CCCCCCCCCC(=O)OCC(COP(=O)([O-])OCC(O)COC(=O)C(N)CCCC[NH3+])OC(=O)CCCCCCCC/C=C\CCCCCC (stereo unspecified) [LysPG(35:2)]

- collision cross section (N2) ([2]; [M-H]-): 255.3 Å²
Compound: CCCC/C=C\CCCCCCCC(=O)O[C@H](CO/C=C\CCCCCCCCCCCCCC)COP(=O)(O)OC[C@@H](O)CO [PG(p30:1)]
